pKi: −log10 of the molar value. Like-named read-outs stand apart in the source and are kept apart here.
What was measured:
[1] = biological target: T1, delta-opioid receptor (DOR) (Rattus norvegicus, UniProt P33533); assay: DOR radioligand competition binding assay ([3H]-DPDPE); conditions: Delta screening results
T1 construct: Rat cortices were homogenized using 50 mM Tris, pH 7.4, 10 mM MgCl2-6H2O, 200 µM PMSF; from tissue; host or cells: rat cortex membranes
Protocol: DOR binding assay: Rat cortices were homogenized using 50 mM Tris, pH 7.4, 10 mM MgCl2-6H2O, 200 µM PMSF, centrifuged and incubated as above. Each assay tube contained 2 nM [^3H]-DPDPE. Assay tubes were incubated for 2.5 h at 25 °C. Unlabeled DPDPE was used as a competitor to generate a standard curve and determine nonspecific binding.
(§1) All three binding assays were terminated by filtration through GF/B filters, soaked in 5 mg/mL bovine serum albumin, 50 mM Tris, pH 7.4, on a Tomtec Mach II Harvester 96. The filters were subsequently washed with 6 mL of assay buffer. Bound radioactivity was counted on a Wallac Betaplate Liquid Scintillation Counter. Experiments were conducted using two replicates and repeated twice. Values in Scheme 2 represent the mean ± SD of two experiments with two replicates in each test.

mu-opioid receptor (MOR) = biological target: T2, mu-opioid receptor (MOR) (Rattus norvegicus, UniProt P33535); assay: MOR radioligand competition binding assay ([3H]-DAMGO); conditions: Mu screening results
T2 construct: Rat cortices were homogenized using 50 mM Tris, pH 7.4, and centrifuged at 16,500 rpm for 10 min; from tissue; host or cells: rat cortex membranes
Protocol: MOR binding assay: Rat cortices were homogenized using 50 mM Tris, pH 7.4, and centrifuged at 16,500 rpm for 10 min. The pellets were resuspended in fresh buffer and incubated at 37 °C for 30 min. Following incubation, the suspensions were centrifuged as before, the resulting pellets were resuspended in 100 volumes of 50 mM Tris, pH 7.4 plus 2 mg/mL bovine serum and the suspensions combined. Each assay tube contained 0.5 mL of membrane suspension, 2 nM [^3H]-DAMGO, and 0.02 mg/mL mixture in a total volume of 0.65 mL [13, 45, 53, 55].
as §1

[2] = biological target: T3, kappa-opioid receptor (KOR) (Cavia porcellus, UniProt P41144); assay: KOR radioligand competition binding assay ([3H]U69,593); set-up: species or system guinea pig; conditions: Kappa screening results
T3 construct: Guinea pig cortices and cerebella were homogenized using 50 mM Tris, pH 7.4; from tissue; host or cells: guinea pig cortex and cerebellum membranes
Protocol: KOR binding assay: Guinea pig cortices and cerebella were homogenized using 50 mM Tris, pH 7.4, 10 mM MgCl2-6H2O, […] centrifuged and incubated as above. Each assay tube contained 2 nM [^3H]U69,593. Assay tubes were incubated for 2 h at 25 °C. Unlabeled U50,488 was used as a competitor to generate a standard curve and determine nonspecific binding.
as §1

[3] = first Ki column, unit not printed (apparently M), read-out: Ki (first column)
[4] = mean of both Ki, unit inferred, read-out: MEAN (Ki)
[5] = mean of two experiments, read-out: Ki
[6] = second Ki column, unit not printed (apparently M), read-out: Ki (second column)
[7] = experiment 1, unit inferred, read-out: Ki (Exp 1)
[8] = experiment 2, unit inferred, read-out: Ki (Exp 2)
[9] = mean of Exp 1 and Exp 2, unit inferred, read-out: MEAN (Ki)

| SMILES | pKi [1, 3] | pKi [1, 4] | pKi [1, 5] | pKi [1, 6] | pKi (mu-opioid receptor (MOR); [7]) | pKi (mu-opioid receptor (MOR); [8]) | pKi (mu-opioid receptor (MOR); [9]) | pKi (mu-opioid receptor (MOR); [5]) | pKi [2, 7] | pKi [2, 8] | pKi [2, 9] | pKi [2, 5] |
| --- | --- | --- | --- | --- | --- | --- | --- | --- | --- | --- | --- | --- |
| N=C1NC[C@H](Cc2ccccc2)N1C[C@H](Cc1ccccc1)N1C[C@H](Cc2ccc(O)cc2)NC1=N [1968-2] | 5.16 | 5.09 | 5.09 | 5.03 | 6.87 | 6.85 | 6.86 | 6.86 | 5.27 | 5.25 | 5.26 | 5.26 |
| CC(C)C[C@H]1CN([C@@H](Cc2ccccc2)CN2C(=N)NC[C@@H]2Cc2ccccc2)C(=N)N1 [1968-3] | 5.20 | 5.18 | 5.18 | 5.16 | 5.59 | 5.58 | 5.59 | 5.59 | 5.35 | 5.32 | 5.33 | 5.33 |
| N=C1NC[C@H](Cc2ccccc2)N1C[C@H](Cc1ccc(O)cc1)N1C[C@H](Cc2ccccc2)NC1=N [1968-5] | 5.19 | 5.03 | 5.03 | 4.92 | 6.03 | 6.17 | 6.10 | 6.10 | 5.40 | 5.43 | 5.42 | 5.42 |
| N=C1NC[C@H](Cc2ccccc2)N1C[C@H](Cc1ccc(O)cc1)N1C[C@H](Cc2ccc(O)cc2)NC1=N [1968-6] | 5.31 | 5.30 | 5.30 | 5.29 | 7.07 | 7.17 | 7.12 | 7.12 | 5.27 | 5.46 | 5.36 | 5.36 |
| CC(C)C[C@@H](CN1C(=N)NC[C@@H]1Cc1ccccc1)N1C[C@H](Cc2ccccc2)NC1=N [1968-9] | 5.01 | 5.11 | 5.11 | 5.24 | 6.07 | 6.02 | 6.05 | 6.05 | 4.94 | 4.96 | 4.95 | 4.95 |
| CC(C)C[C@@H](CN1C(=N)NC[C@@H]1Cc1ccccc1)N1C[C@H](Cc2ccc(O)cc2)NC1=N [1968-10] | 5.65 | 5.66 | 5.66 | 5.66 | 6.70 | 6.55 | 6.62 | 6.62 | 5.26 | 5.32 | 5.29 | 5.29 |
| CC(C)C[C@H]1CN([C@@H](CC(C)C)CN2C(=N)NC[C@@H]2Cc2ccccc2)C(=N)N1 [1968-11] | 4.58 | 4.23 | 4.23 | 4.04 | 5.53 | 5.52 | 5.52 | 5.52 | 4.86 | 5.05 | 4.94 | 4.94 |
| Cc1cc(O)cc(C)c1C[C@H]1CN([C@@H](CC(C)C)CN2C(=N)NC[C@@H]2Cc2ccccc2)C(=N)N1 [1968-12] | 5.71 | 5.73 | 5.73 | 5.76 | 7.17 | 7.18 | 7.18 | 7.17 | 5.99 | 5.89 | 5.94 | 5.94 |
| Cc1cc(O)cc(C)c1C[C@@H](CN1C(=N)NC[C@@H]1Cc1ccccc1)N1C[C@H](CC(C)C)NC1=N [1968-15] | 5.97 | 5.90 | 5.90 | 5.84 | 6.46 | 6.59 | 6.52 | 6.52 | 6.25 | 6.30 | 6.27 | 6.27 |
| N=C1NC[C@H](Cc2ccc(O)cc2)N1C[C@H](Cc1ccccc1)N1C[C@H](Cc2ccccc2)NC1=N [1968-17] | 5.10 | 5.15 | 5.15 | 5.20 | 5.97 | 6.13 | 6.04 | 6.04 | 5.20 | 5.16 | 5.18 | 5.18 |
| N=C1NC[C@H](Cc2ccc(O)cc2)N1C[C@H](Cc1ccccc1)N1C[C@H](Cc2ccc(O)cc2)NC1=N [1968-18] | 5.12 | 5.09 | 5.09 | 5.07 | 6.39 | 6.40 | 6.40 | 6.40 | 5.46 | 5.44 | 5.45 | 5.45 |
| Cc1cc(O)cc(C)c1C[C@@H](CN1C(=N)NC[C@@H]1C)N1C[C@H](CC(C)C)NC1=N [1968-19] | 5.93 | 5.96 | 5.96 | 6.00 | 7.80 | 7.85 | 7.82 | 7.82 | 7.05 | 7.36 | 7.18 | 7.18 |
| Cc1cc(O)cc(C)c1C[C@H]1CN([C@@H](Cc2ccccc2)CN2C(=N)NC[C@@H]2Cc2ccc(O)cc2)C(=N)N1 [1968-20] | 6.06 | 6.07 | 6.07 | 6.08 | 7.13 | 7.10 | 7.11 | 7.11 | 6.01 | 6.18 | 6.09 | 6.09 |
| N=C1NC[C@H](Cc2ccc(O)cc2)N1C[C@H](Cc1ccc(O)cc1)N1C[C@H](Cc2ccccc2)NC1=N [1968-21] | 5.11 | 5.11 | 5.11 | 5.12 | 6.76 | 6.70 | 6.73 | 6.73 | 5.44 | 5.48 | 5.46 | 5.46 |
| CC(C)C[C@H]1CN([C@@H](Cc2ccc(O)cc2)CN2C(=N)NC[C@@H]2Cc2ccc(O)cc2)C(=N)N1 [1968-23] |  |  |  |  | 5.63 | 5.64 | 5.64 | 5.64 | 5.02 | 5.13 | 5.07 | 5.07 |
| CC(C)C[C@@H](CN1C(=N)NC[C@@H]1Cc1ccc(O)cc1)N1C[C@H](Cc2ccccc2)NC1=N [1968-25] | 4.60 | 4.52 | 4.52 | 4.45 | 6.15 | 6.14 | 6.15 | 6.15 | 5.18 | 5.48 | 5.31 | 5.31 |
| CC(C)C[C@@H](CN1C(=N)NC[C@@H]1Cc1ccc(O)cc1)N1C[C@H](Cc2ccc(O)cc2)NC1=N [1968-26] | 5.13 | 5.09 | 5.09 | 5.06 | 6.11 | 6.12 | 6.12 | 6.12 | 4.80 | 4.88 | 4.84 | 4.84 |
| CC(C)C[C@H]1CN([C@@H](CC(C)C)CN2C(=N)NC[C@@H]2Cc2ccc(O)cc2)C(=N)N1 [1968-27] |  |  |  |  | 6.02 | 6.00 | 6.01 | 6.01 | 5.37 | 5.32 | 5.34 | 5.34 |
| Cc1cc(O)cc(C)c1C[C@H]1CN([C@@H](CC(C)C)CN2C(=N)NC[C@@H]2Cc2ccc(O)cc2)C(=N)N1 [1968-28] | 5.32 | 5.29 | 5.30 | 5.27 | 6.93 | 6.92 | 6.93 | 6.93 | 6.08 | 5.85 | 5.95 | 5.95 |
| CC(C)C[C@H]1CN([C@@H](Cc2ccccc2)CN2C(=N)NC[C@@H]2C)C(=N)N1 [1968-35] |  |  |  |  | 5.35 | 5.34 | 5.35 | 5.35 | 4.47 | 4.28 | 4.36 | 4.36 |
